Measurements: patent US11910795B2, “Natural indole auxin and aminopolycarboxylic acid herbicidal compositions” (Suncor Energy Inc., priority 2013, dated 2024)

Tests used:
[1] = tested on: Dandelions; test: Field testing control of dandelions in Ontario (Example 5); assay type: in vivo; details: Table 6 (FIG. 6), 200 gpa, rated 10 and 30 days following application
Protocol: Formulations containing IBA, DTPA, and combinations of IBA with various chelating agents including salts of DTPA, EDTA, ethylenediamine-N,N′-disuccinic acid (EDDS), N-(hydroxyethyl)-ethylenediaminetriacetic acid (HEDTA), and lignosulfonic acid were prepared as detailed in Table 6 the solutions were prepared in water at the concentrations indicated ([…]). The formulations were applied at a rate of 200 gpa onto sections of a plot containing dandelions and other weeds in Ontario, Canada. Injuries to the grass and dandelions were visually inspected and rated 10 days and 30 days following application of the formulations. Performance of the formulations was evaluated based on the percentage of control of the dandelions observed. Injuries to the grass were also rated using a 0-10 scale: 0=no injury; 10=plant dead, severe injury.

[2] = tested on: buckhorn plantains; test: Field testing control of buckhorn plantain in North Carolina (Example 4); assay type: in vivo; details: Table 5 (FIG. 5)
Protocol: The formulations were applied at a rate of 200 gpa onto sections of a plot containing buckhorn plantains and other weeds in North Carolina, U.S.A. A second application of the formulations was made 21 days following the initial application. The sections were visually inspected and rated over the course of 56 days following the initial application. Performance of the formulations was evaluated based on the percentage control of the buckhorn plantains observed in each section.

[3] = tested on: Dandelions; test: Control of dandelions in greenhouse study (Example 2, IBA/EDTA); assay type: in vivo; details: for control on weeds: Table 3 (FIG. 3), greenhouse, 200 gpa, result in words; for effect on weeds at concentrations greater than 5% by weight / herbicidal effect at concentrations lower than 5% by weight: tested alone; for effect on weeds at concentrations greater than 5% by weight: Table 3; for herbicidal effect at concentrations lower than 5% by weight: Table 3 (IBA: Tr 2-4)
Protocol: (§1) Dandelions and Kentucky Bluegrass were seeded and grown in the greenhouse for at least 10 weeks before treatment. Ready-to-use formulations containing indole-3-butyric acid (IBA) and ethylenediaminetetraacetic acid (EDTA), including ethylenediaminetetraacetic acid tetrasodium salt (EDTA Na4), ethylenediaminetetraacetic acid disodium salt (EDTA Na2), and ethylenediaminetetraacetic acid calcium sodium salt, and combinations of IBA and a chelator were prepared as detailed in Table 3 with the remainder of the formulation being comprised of water. IBA was initially dissolved in KHCO3 when the acid could not be dissolved directly and then diluted in water to the concentration indicated (this is indicated below in Table 3 by the label IBA-K). The prepared formulations were applied to sections of the dandelion and Kentucky Bluegrass plots at a rate of 200 gallons per acre (gpa).
(§2) Injuries to the grass and weeds were visually inspected and rated for 4 weeks using a 0-10 scale: 0=no injury; 10=plant dead. For turfgrass, ratings greater than 3 indicated unacceptable phytotoxicity. The numbers indicate the maximum effect observed on the various plants. When regrowth of the plants following application was observed, it is noted in the table following the overall injury score.

[4] = Dissolving IBA when preparing formulations (Example 2); assay type: physicochemical; details: Treatment 10, 12 and 14 of Table 3
Protocol: as §1

[5] = tested on: Kentucky Bluegrass; test: Injury to Kentucky Bluegrass in greenhouse study (Example 2, IBA/EDTA); assay type: in vivo; details: tested alone, Table 3
Protocol: as §1, §2

[6] = Solubility of IBA in aqueous solutions (Example 9); assay type: physicochemical
From the text: The solubility of IBA and its salts was investigated in various aqueous solutions under different pH conditions. The effect of chelators such as EDTA and HEDTA on the solubility of IBA was also investigated. The data provided further evidence of the relatively limited water solubility of the IBA acid (<0.1%).

dissolution of a 1% solution under alkaline conditions ([6]; 1% solution of IBA)	pH at which a 1% solution was stable ([6]; 1% solution of IBA)	water solubility ([6]; IBA acid in water)	SMILES	control of the dandelions [1]	time after which the weeds began to exhibit regrowth [2]	control on the buckhorn plantains ([2]; 200 gpa, second application after 21 days, rated over 56 days)	control on weeds [3]	regrowth of the weeds ([3]; Table 3, after application)	effect on weeds at concentrations greater than 5% by weight [3]	herbicidal effect at concentrations lower than 5% by weight [3]	dissolution of IBA in EDTA-Na4 [4]	injury to the grass at concentrations greater than 5% by weight [5]
–	–	–	O=C(O)CN(CCN(CC(=O)O)CC(=O)O)CCN(CC(=O)O)CC(=O)O [DTPA, diethylenetriaminepentaacetic acid]	moderate control	> 25 days	moderate control	–	–	–	–	–	–
–	–	–	O=C(O)CN(CCN(CC(=O)O)CC(=O)O)CC(=O)O [EDTA, ethylenediaminetetraacetic acid]	–	–	–	low to moderate control	grow back after 14 or 28 DAT	burns the leaves of weeds	limited herbicidal effect	–	–
dissolves well	> 6	< 0.1%	O=C(O)CCCc1c[nH]c2ccccc12 [IBA, indole-3-butyric acid]	moderate control	–	–	low to moderate control	–	exhibited control of the weeds	limited herbicidal effect	can be dissolved in EDTA-Na4 directly without addition of KHCO3	severe injury
